# Earlier results, collected in patent US12691128B2, “Methods of treating eosinophilic esophagitis and reducing candidiasis” (Ellodi Pharmaceuticals, L.P., priority 2019, dated 2026).
# Like-named read-outs stand apart in the source and are kept apart here.
# Key:
# glucocorticoid receptor = biological target: T1, glucocorticoid receptor (Homo sapiens, UniProt P04150); parameters: reference not given here
# T1 sequence (P04150 1-777): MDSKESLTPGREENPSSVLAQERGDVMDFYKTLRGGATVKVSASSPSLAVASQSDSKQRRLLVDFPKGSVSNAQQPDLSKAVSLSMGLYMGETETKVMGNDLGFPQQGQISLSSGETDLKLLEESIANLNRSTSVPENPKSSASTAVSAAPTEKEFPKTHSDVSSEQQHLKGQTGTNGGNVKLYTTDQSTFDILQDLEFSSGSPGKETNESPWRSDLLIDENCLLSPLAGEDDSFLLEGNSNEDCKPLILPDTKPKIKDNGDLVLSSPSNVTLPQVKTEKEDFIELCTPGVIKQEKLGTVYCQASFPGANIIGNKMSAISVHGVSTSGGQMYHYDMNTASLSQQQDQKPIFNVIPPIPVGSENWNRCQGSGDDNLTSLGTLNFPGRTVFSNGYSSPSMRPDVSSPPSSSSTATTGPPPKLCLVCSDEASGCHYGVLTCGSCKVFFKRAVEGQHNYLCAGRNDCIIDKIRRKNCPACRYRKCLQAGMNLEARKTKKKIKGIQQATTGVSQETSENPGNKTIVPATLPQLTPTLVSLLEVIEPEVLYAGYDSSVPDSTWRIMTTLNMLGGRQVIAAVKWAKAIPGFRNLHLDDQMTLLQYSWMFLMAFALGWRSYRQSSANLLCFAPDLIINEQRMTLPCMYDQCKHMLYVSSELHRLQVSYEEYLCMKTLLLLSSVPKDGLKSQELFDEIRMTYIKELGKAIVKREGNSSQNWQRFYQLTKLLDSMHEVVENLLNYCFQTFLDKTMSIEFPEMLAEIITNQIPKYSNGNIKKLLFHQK
# [1] = biological target: cytochrome (CYP) isoenzyme 2C9 (Homo sapiens, UniProt P11712)
# CYP3A4 = CYP3A4 (Homo sapiens, UniProt P08684)
# [2] = reported
# CYP3A4, sequence (P08684 whole entry): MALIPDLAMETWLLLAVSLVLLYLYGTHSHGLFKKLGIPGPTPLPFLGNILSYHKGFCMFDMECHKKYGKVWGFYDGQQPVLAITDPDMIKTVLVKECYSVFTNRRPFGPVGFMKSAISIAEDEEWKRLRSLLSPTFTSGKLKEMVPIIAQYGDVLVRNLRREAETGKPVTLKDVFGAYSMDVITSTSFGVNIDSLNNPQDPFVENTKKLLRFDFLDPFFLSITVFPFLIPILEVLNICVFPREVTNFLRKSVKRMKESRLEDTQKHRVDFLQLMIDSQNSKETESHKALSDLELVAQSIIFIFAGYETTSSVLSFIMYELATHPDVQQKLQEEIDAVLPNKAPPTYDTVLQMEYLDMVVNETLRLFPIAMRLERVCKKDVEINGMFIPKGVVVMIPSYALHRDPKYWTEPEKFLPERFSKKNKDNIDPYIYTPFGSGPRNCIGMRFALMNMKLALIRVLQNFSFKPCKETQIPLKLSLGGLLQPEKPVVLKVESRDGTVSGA
# cytochrome (CYP) isoenzyme 2C9, sequence (P11712 whole entry): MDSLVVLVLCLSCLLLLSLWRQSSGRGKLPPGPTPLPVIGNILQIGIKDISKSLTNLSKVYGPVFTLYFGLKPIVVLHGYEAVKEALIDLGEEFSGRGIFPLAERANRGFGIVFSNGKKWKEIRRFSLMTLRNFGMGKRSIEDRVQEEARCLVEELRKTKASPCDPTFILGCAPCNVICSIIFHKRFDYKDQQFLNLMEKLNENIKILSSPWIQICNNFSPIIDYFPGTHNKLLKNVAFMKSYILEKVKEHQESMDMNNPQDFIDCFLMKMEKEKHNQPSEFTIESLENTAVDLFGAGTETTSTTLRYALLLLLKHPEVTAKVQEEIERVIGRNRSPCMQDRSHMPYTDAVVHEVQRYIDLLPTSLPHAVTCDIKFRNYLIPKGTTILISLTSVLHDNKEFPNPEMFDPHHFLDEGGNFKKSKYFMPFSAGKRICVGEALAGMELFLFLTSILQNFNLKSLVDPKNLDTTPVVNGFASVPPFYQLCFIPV
smiles,measurement,setting,value
CC1(C)O[C@@H]2C[C@H]3[C@@H]4CCC5=CC(=O)C=C[C@]5(C)[C@@]4(F)[C@@H](O)C[C@]3(C)[C@]2(C(=O)CO)O1 [Triamicinolone acetonide],Relative Glucocorticoid Receptor Binding Affinity,glucocorticoid receptor,233
C[C@]12C=CC(=O)C=C1CC[C@@H]1[C@@H]2[C@@H](O)C[C@@]2(C)[C@H]1CC[C@]2(O)C(=O)CO [Prednisolone],Relative Glucocorticoid Receptor Binding Affinity,glucocorticoid receptor,12
CC1(C)O[C@@H]2C[C@H]3[C@@H]4C[C@H](F)C5=CC(=O)C=C[C@]5(C)[C@H]4[C@@H](O)C[C@]3(C)[C@]2(C(=O)CO)O1 [Flunisolide],Relative Glucocorticoid Receptor Binding Affinity,glucocorticoid receptor,190
OC(Cn1cncn1)(Cn1cncn1)c1ccc(F)cc1F [fluconazole],Inhibition of cytochrome (CYP) isoenzyme 2C9,[1],potent inhibitor
same,Inhibition of CYP3A4,CYP3A4,moderate inhibitor
"CCC(=O)O[C@]1(C(=O)SCF)[C@H](C)C[C@H]2[C@@H]3C[C@H](F)C4=CC(=O)C=C[C@]4(C)[C@@]3(F)[C@@H](O)C[C@@]21C [Fluticasone propionate, S-(fluoromethyl)-6α,9-difluoro-11β, 17-dihydroxy-16α-methyl-3-oxoandrosta-1,4-diene-17β-carbothioate, 17-propanoate]",Relative Glucocorticoid Receptor Binding Affinity,glucocorticoid receptor,1775
same,Solubility,"acetone, dichloromethane, ethyl acetate and chloroform",sparingly soluble
same,Solubility,dimethyl sulfoxide and dimethylformamide,freely soluble
same,Solubility,methanol and 95% ethanol,slightly soluble
same,Solubility,water,practically insoluble
same,Oral bioavailability,[2],less than 1%
C[C@]12C=CC(=O)C=C1CC[C@@H]1[C@@H]2[C@@H](O)C[C@@]2(C)[C@H]1C[C@H]1O[C@@H](C3CCCCC3)O[C@]12C(=O)CO [des-CIC],Relative Glucocorticoid Receptor Binding Affinity,glucocorticoid receptor,12 (1200)
